Experiments:
human ES cells (HS181) = experiment: Cell adhesion assay, Crystal Violet (Example 1); assay type: cell-based
Protocol: Ninety-six-well tissue cell culture plates were coated overnight at 4° C. with sterile solutions of the ECM proteins mouse LN-111 (Invitrogen), human recombinant LN-511, and human recombinant LN-521, all at a concentration of 30 μg/ml (5 μg/cm^2). For control cells, BD Matrigel™ hESC qualified (BD Biosciences) was used according to the manufacturer's instructions.
The assay was performed as described (Extracellular Matrix Protocols, 2000). Briefly, 96-well plates were coated by extracellular matrix proteins as described above and blocked by O3 medium containing bovine serum albumin. The ES cells were plated at a cell density of 600 cell/mm^2 upon extracellular matrix-coated plates and were left to adhere for either 1 hour or 1 day at the cell incubator. Non-adherent cells were washed away, and adherent cells were fixed for 20 min by 5% glutaraldehyde, stained by 0.1% Crystal Violet.

ES cells = experiment: Embryoid body formation; assay type: cell-based, human; details: same three cultures as teratoma test
Protocol: ES cells from LN-521 coated cell culture dishes were exposed to TrypLE™Select for one minute at 37° C., 5% CO2, washes two times with a medium, broken into large pieces and cultured in suspension in low adhesion plates. The medium used for this was Knockout DMEM (GIBCO Invitrogen Corporation) supplemented with 2 mM L-glutamine, 20% fetal calf serum (GIBCO Invitrogen Corporation), 0.1 mM β-mercaptoethanol (GIBCO Invitrogen Corporation) and 1% non-essential amino acids (GIBCO Invitrogen Corporation). After 1-2 weeks in suspension, the embryoid bodies were transferred onto gelatin coated tissue cell culture 96-well plates (Sarstedt), cultured for 1-2 weeks, then fixed, stained with antibodies against markers of all three embryonic germ line layers (smooth muscle actin, MAP-2 and α-fetoprotein) and analyzed as described above for immunofluorescence.

## LN-521: protein formed by joining α5, β2 and γ1 laminin chains; human recombinant, produced in HEK293 cells
Human ES cells (HS181); FIG. 7
  adhesion at 1 day without additives compared with all dishes including the ROCK inhibitor: similar
Human ES cells (HS181); HS181 completely dissociated, O3 medium without any additives, FIG. 4
  cells remaining attached / surviving 24 hours after plating: survived
Human ES cells (HS181); O3 medium without any additives, without Y-27632, FIG. 6
  adhesion of human ES cells at 1 hour: roughly the same
Human ES cells (HS181); without additives, FIG. 7
  adhesion at 1 day relative to Matrigel without additives: 20 times
ES cells
  differentiation in vitro, embryoid bodies expressing markers of mesoderm, ectoderm and endoderm: retained the competence to form embryoid bodies
